Test [1] has as its system HCoV-229E. Kind of test: Intracellular (cellular) viral load by RT-qPCR, combined effect of TTFields with remdesivir. In kind it is cell-based, HCoV-229E in human MRC-5 lung fibroblast cells. Conditions: for Calculated additive: Remdesivir alone multiplied by TTFields alone.
Test [2] relates to HCoV-229E. Kind of test: Extracellular viral amount (virions secreted to the media) by RT-qPCR, combined effect of TTFields with remdesivir. Conditions: 48 hpi. In kind it is cell-based, HCoV-229E in human MRC-5 lung fibroblast cells. (In general: Real-time PCR tracks product formation cycle by cycle.)

One may read the inhibition as how much of the control response was suppressed. With `CCC(CC)COC(=O)[C@H](C)N[P@](=O)(OC[C@H]1O[C@@](C#N)(c2ccc3c(N)ncnn23)[C@H](O)[C@@H]1O)Oc1ccccc1` [remdesivir], the “reduction of cellular viral load” value in the test on HCoV-229E [1] (0.023 μM remdesivir alone, MRC-5 infected 3 hr, MOI 0.01, 48 hpi) was 65%. In the test on HCoV-229E [1] (Human coronavirus 229E, MRC5, 0.011 μM remdesivir alone, MRC-5 infected 3 hr, MOI 0.01, 48 hpi), the inhibition at 0.011 µM came out at 27%. Further, the “Remdesivir alone (viral load remaining relative to control)” value in the test with HCoV-229E [1] (Remdesivir concentration 0.011) came out at 73%; with HCoV-229E [1] (Remdesivir concentration 0.023), 35%. Besides, the Calculated additive with HCoV-229E [1] (Remdesivir concentration 0.011) is recorded as 42%; in the test on HCoV-229E [1] (Remdesivir concentration 0.023), 20%. The “Measured combined (viral load remaining relative to control)” value came out at 46% with HCoV-229E [1] (Remdesivir concentration 0.011 with TTFields) and 15% in the test on HCoV-229E [1] (Remdesivir concentration 0.023 with TTFields). Besides, the “reduction of viral load” value with HCoV-229E [1] (high dose (0.023 μM) remdesivir with concomitant 150 kHz TTFields, 48 hpi) was determined as 85%; in the test with HCoV-229E [1] (low dose (0.011 μM) remdesivir with concomitant 150 kHz TTFields, 48 hpi), 54%. Moreover, the “reduction in number of virions secreted to the media” value in the test on HCoV-229E [2] (0.011 μM remdesivir alone) turned out to be 31%; in the test with HCoV-229E [2] (0.023 μM remdesivir alone) it was 75%. Further, the entries for the “decrease in number of virions secreted to the media” value in the test with HCoV-229E [2] (high dose (0.023 μM) remdesivir with concomitant 150 kHz TTFields) and in the test with HCoV-229E [2] (low dose (0.011 μM) remdesivir with concomitant 150 kHz TTFields) were 88% and 68%, respectively.

(Values after patent US20220088403A1, “Methods And Compositions For Treating Coronavirus” (NOVOCURE GMBH, priority 2020, published 2022).)
